Measurements published in US5399696A, “Isoquinolinyl compounds which are intermediates” (Eli Lilly and Company, priority 1993, dated 1995).

Legend:
[1] = biological target: AMPA receptor; experiment: Antagonism of AMPA-induced depolarization of rat cortical wedges; assay type: cell-based
Method: (§1) The depolarization of rat cortical wedges was used to test the selectivity and potency of the formula I compounds as AMPA antagonists using a technique similar to that described by Harrison and Simmonds. Harrison and Simmonds, Bri. J. Pharmacol., 84, 381-391 (1984). Generally, 4-ml aliquots of NMDA (40 μM), AMPA (40 μM), and kainate (10 μM) were superfused (2 ml/min.) on the grey matter at intervals of 15-20 minutes until stable responses were attained. The tissue was then exposed for 15 minutes to various concentrations of the formula I compounds before retesting the agonists. The IC50 values were calculated from linear regression of log dose-response curves, each point the mean of at least three observations on separate slices from more than one animal.

[2] = biological target: kainic acid (KA) receptor; experiment: Radioligand binding: tritiated kainate binding with washed synaptosomal membranes from the rat forebrain; details: tritiated kainate 5 nM, pH 7.4, mean ± standard error (n = 3), values marked ^c single experiment
Method: (§2) The formula I compounds were tested for their ability to inhibit NMDA, AMPA, and kainic acid receptor binding to rat membranes in a radioligand binding assay using [^3 H]CGS19755, [^3 H]AMPA, and [^3 H]KA. For all radioligand binding assays, male Sprague-Dawley rats were used. […] Non-specific binding was determined using 10 μM L-glutamate. Samples were incubated in an ice-bath for 30 minutes, and bound ligand was separated from the free ligand by rapid filtration through WHATMAN GF/B glass fiber filters. Murphy et al, British J. Pharmacol., 95, 932-938 (1988). Kainate binding was performed using washed synaptosomal membranes from the rat forebrain as described by Simon et al. Simon et al, J. Neurochem., 26, 141-147 (1976). Tritiated kainate (5 nM) was added to 50 mM Tris-HCl buffer (pH 7.4 at 4° C.) containing 200-300 μg/ml of tissue protein. Samples were incubated for 30 minutes in an ice-bath, then rapidly filtered using a Brandel cell harvester and WHATMAN GF/C filters. Filters were washed twice with 3 ml of cold buffer. Non-specific binding was determined using 100 μM non-labeled kainate. The binding of [^3 H]AMPA (5 nM) was conducted with crude membranes of rat forebrain in the presence of 100 mM KSCN as described by Nielson et al. Nielson et al, Eur. J. Med. Chem. Chim. Ther., 21, 433-437 (1986). Non-specific binding was determined with 10 μM non-labeled AMPA. The concentration of the formula I compound that inhibited 50% binding (IC50, mean ±standard error, n=3) as calculated by linear regression of displacement data transformed to the Hill equation as described by Bennett. Bennett, Neurotransmitter Receptor Binding, 57-90 (1978).

[3] = biological target: NMDA receptor; experiment: Antagonism of NMDA-induced depolarization of rat cortical wedges; assay type: cell-based; details: NMDA 40 μM, mean ± standard error (n = 3), read-out: IC50 NMDA, antagonism of cortical wedge depolarization
Method: as §1

[4] = biological target: NMDA receptor; experiment: Radioligand binding: displacement of [^3 H]CGS19755 from synaptosomal membranes of rat forebrain (NMDA receptor affinity); details: [^3 H]CGS19755 10 nM, mean ± standard error (n = 3), values marked ^c single experiment
Method: as §2

[5] = biological target: AMPA receptor; experiment: Radioligand binding: [^3 H]AMPA binding with crude membranes of rat forebrain
Method: as §2

[6] = biological target: kainic acid (KA) receptor; experiment: Antagonism of kainate-induced depolarization of rat cortical wedges; assay type: cell-based; details: kainate 10 μM, mean ± standard error (n = 3)
Method: as §1

[7] = Table III; racemic; AMPA 40 μM; mean ± standard error (n = 3); read-out: IC50 AMPA, antagonism of cortical wedge depolarization
[8] = Table I, racemic, [^3 H]AMPA 5 nM, 100 mM KSCN, mean ± standard error (n = 3), values marked ^c single experiment, read-out: IC50 AMPA, receptor binding
[9] = Table III; cortical wedge; racemic
[10] = text summary of Table I, racemic, read-out: selectively displaced ^3 H-AMPA with IC50 values
[11] = Table II, enantiopure, [^3 H]AMPA 5 nM, 100 mM KSCN, mean ± standard error (n = 3), values marked ^c single experiment, read-out: IC50 AMPA, receptor binding

Compound | IC50 [1, 7] [µM] | IC50 KA, receptor binding ([2]; Table I, racemic) [µM] | IC50 ([3]; Table III, racemic) [µM] | IC50 ([4]; Table I, racemic) [µM] | IC50 [5, 8] [µM] | IC50 KA, antagonism of cortical wedge depolarization ([6]; Table III, racemic) | IC50 [5, 10] [µM] | other results
O=C(O)[C@@H]1C[C@H]2C[C@@H](CCCCc3nnn[nH]3)CC[C@H]2CN1 (racemic) [Compound 10, (3SR,4aRS,6SR,8aRS)-6-[(1(2)H-Tetrazole-5-yl)but-1-yl]decahydroisoquinoline-3-carboxylic Acid] | 27.6 ± 3.1 | > 100 | > 100 | > 100 | 32 |  |  | 
O=C(O)[C@@H]1C[C@H]2C[C@@H](CS(=O)(=O)c3ncn[nH]3)CC[C@H]2CN1 (racemic) [Compound 15, (3SR,4aRS,6SR,8aRS)-6-[(1(2-4)H-1,2,4-Triazole-5-yl)sulfonylmethyl]decahydroisoquinoline-3-carboxylic Acid] | 2.16 ± 0.79 | > 100 | > 100 | > 100 | 1.67 ± 0.14 | Ca. 10 μM | < 15 | selective AMPA receptor antagonism (in words) [1, 9]: selective AMPA receptor antagonists
O=C(O)[C@H]1C[C@@H]2C[C@H](CS(=O)(=O)c3nc[nH]n3)CC[C@@H]2CN1 [Compound 27, (3R,4aS,6R,8aS)-6-[(1(2-4)H-1,2,4-Triazole-5-yl)sulfonylmethyl]decahydroisoquinoline-3-carboxylic Acid] |  |  |  |  |  |  |  | IC50 KA, receptor binding ([2]; Table II, enantiopure): > 100 µM; IC50 ([4]; Table II, enantiopure): 60.9 µM; IC50 [5, 11]: 23.6 µM
O=C(O)[C@H]1C[C@@H]2C[C@H](CSc3nn[nH]n3)CC[C@@H]2CN1 [Compound 24] |  |  |  |  |  |  |  | IC50 ([1]; Table IV; enantiopure; AMPA 40 μM; mean ± standard error (n = 3); read-out: IC50 AMPA, antagonism of cortical wedge depolarization): 19.8 ± 2.2 µM; IC50 KA, receptor binding ([2]; Table II, enantiopure): > 100 µM; IC50 KA, antagonism of cortical wedge depolarization ([6]; Table IV, enantiopure): > 31.6 µM; IC50 ([3]; Table IV, enantiopure): > 100 µM; IC50 ([4]; Table II, enantiopure): > 10 µM; IC50 [5, 11]: 21.9 µM
O=C(CC[C@H]1CC[C@H]2CN[C@H](C(=O)O)C[C@H]2C1)Nc1nn[nH]n1 (relative stereo) [Compound 17, (3SR,4aRS,6RS,8aRS)-6-[2-(N-(1(2)H-Tetrazole-5-yl)carboxamido)ethyl]decahydroisoquinoline-3-carboxylic Acid] |  | > 100 |  | > 100 | 45.7 |  |  | 
O=CN(Cc1nnn[nH]1)[C@H]1CC[C@H]2CN[C@H](C(=O)O)C[C@@H]2C1 (racemic) [Compound 3, (3SR,4aRS,6SR,8aRS)-6-[N-(1(2)H-Tetrazole-5-yl)methylformamido]-decahydroisoquinoline-3-carboxylic Acid] |  | > 100 |  | > 100 | 29.1 |  |  | 
O=C(O)[C@@H]1C[C@H]2C[C@@H](CSc3nnn[nH]3)CC[C@H]2CN1 (racemic) [Compound 4, (3SR,4aRS,6SR,8aRS)-6-[2-(1(2)H-Tetrazole-5-yl)-2-thiaethyl]decahydroisoquinoline-3-carboxylic Acid] | 3.3 ± 0.9 | 30.1 ± 1.6 | > 100 | 29.4 ± 6.8 | 0.9 ± 0.14 | > 100 µM | < 15 | selective AMPA receptor antagonism (in words) [1, 9]: selective AMPA receptor antagonists
O=C(O)[C@@H]1C[C@H]2C[C@@H](CCc3cc(O)no3)CC[C@H]2CN1 (racemic) [Compound 13, (3SR,4aRS,6RS,8aRS)-6-[2-(3-Hydroxyisoxazole-5-yl)ethyl]decahydroisoquinoline-3-carboxylic Acid] | 16.5 ± 2.7 | > 100 | > 100 | > 100 | 13.8 ± 1.24 | > 100 µM | < 15 | selective AMPA receptor antagonism (in words) [1, 9]: selective AMPA receptor antagonists
O=C(O)[C@@H]1C[C@H]2C[C@@H](C(Cc3nn[nH]n3)c3ccccc3)CC[C@H]2CN1 (stereo partly drawn) [Compound 19, (3SR,4aRS,6RS,8aRS)-6-[2-(1(2)H-Tetrazole-5-yl)-1-phenylethyl]decahydroisoquinoline-3-carboxylic Acid] | 9 ± 2.8 | > 100 | 100 | 13.8 | 6.58 | 23.6 ± 5.6 µM | < 15 | selective AMPA receptor antagonism (in words) [1, 9]: selective AMPA receptor antagonists
O=C(O)[C@@H]1C[C@H]2C[C@H](CCc3nn[nH]n3)CC[C@H]2CN1 (relative stereo) [Compound 2, (3SR,4aRS,6SR,8aRS)-6-[2-(1(2)H-Tetrazole-5-yl)ethyl]decahydroisoquinoline-3-carboxylic Acid] |  | 180.0 ± 22.1 | > 100 | 60.6 ± 24.8 | 59.6 ± 4.3 |  |  | 
CC(Cc1nn[nH]n1)[C@H]1CC[C@H]2CN[C@H](C(=O)O)C[C@H]2C1 (stereo partly drawn) [Compound 18, (3SR,4aRS,6RS,8aRS)-6-[2-(1(2)H-Tetrazole-5-yl)-1-methylethyl]decahydroisoquinoline-3-carboxylic Acid] |  | 28.2 |  | 43.1 | 3.37 |  | < 15 | 
O=C(O)[C@@H]1C[C@H]2C[C@@H](CCCc3nnn[nH]3)CC[C@H]2CN1 (racemic) [Compound 6, (3SR,4aRS,6SR,8aRS)-6-[(1(2)H-Tetrazole-5-yl)prop-1-yl]decahydroisoquinoline-3-carboxylic Acid] | 22 ± 3.8 | 18.65 ± 0.33 |  | 27 ± 9.9 | 16.8 ± 0.46 |  |  | 
O=C(O)[C@@H]1C[C@H]2C[C@@H](CS(=O)(=O)c3nc[nH]n3)CC[C@H]2CN1 [Compound 26, (3S,4aR,6S,8aR)-6-[(1(2-4)H-1,2,4-Triazole-5-yl)sulfonylmethyl]decahydroisoquinoline-3-carboxylic Acid] |  |  |  |  |  |  |  | IC50 KA, receptor binding ([2]; Table II, enantiopure): > 100 µM; IC50 ([4]; Table II, enantiopure): > 100 µM; IC50 [5, 11]: 0.63 µM
O=C(O)[C@@H]1C[C@H]2C[C@H](CCc3nn[nH]n3)CC[C@H]2CN1 [Compound 22, (3S,4aR,6S,8a,R)-6-[2-(1(2)H-Tetrazole-5-yl)ethyl]decahydroisoquinoline-3-carboxylic Acid] |  |  |  |  |  |  |  | IC50 ([1]; read-out: IC50 AMPA, antagonism of cortical wedge depolarization; Table IV; enantiopure; AMPA 40 μM; mean ± standard error (n = 3)): 21.9 ± 3.3 µM; IC50 KA, receptor binding ([2]; Table II, enantiopure): 85.3 µM; IC50 KA, antagonism of cortical wedge depolarization ([6]; Table IV, enantiopure): 28.9 ± 9.2 µM; IC50 ([3]; Table IV, enantiopure): > 100 µM; IC50 [5, 11]: 15.3 µM
CS(=O)(=O)NC(=O)CC[C@H]1CC[C@H]2CN[C@H](C(=O)O)C[C@H]2C1 (relative stereo) [Compound 16, (3SR,4aRS,6RS,8aRS)-6-[2-((N-Methanesulfonyl)carboxamido)ethyl]decahydroisoquinoline-3-carboxylic Acid] |  | > 100 |  | > 100 | 80 |  |  | 
O=C(O)[C@@H]1C[C@H]2C[C@@H](CCc3nn[nH]n3)CC[C@H]2CN1 (relative stereo) [Compound 1, (3 SR,4aRS,6RS,8aRS)-6-[2-(1(2)H-Tetrazole-5-yl)ethyl]decahydroisoquinoline-3-carboxylic Acid] | 6 ± 1 | 246.98 ± 7.5 | 61.3 ± 3 | 26.4 ± 1.95 |  | 31.7 ± 4.4 µM |  | 
